Measurements as given in patent US20090197949A1, “ANTITUMOR METHODS AND COMPOSITIONS COMPRISING SESQUITERPENE DERIVATIVES” (F.P.L. Pharma, Inc., priority 2001, published 2009).
Read-outs that look alike come from different tables or passages of the source.

How the values were obtained:
[1] = tested on: CT-26 mouse colon carcinoma; experiment: In vitro survival assay, resazurin reduction test, CT-26; format: cell-based; conditions: CT26, CT-26, 48 h
From the text: (§1) Normal human fibroblasts were purchased from Biopredic International (Rennes, France). This frozen culture was obtained from a person abdominal surgical waste and the cells used in this work was from the 7th to the 12th passage of the culture. M4Beu and […], human melanoma cell lines, was established in the laboratory of Dr. J. F. Doré (Institut National de la Santé et de la Recherche Médicale-INSERM, Unit 218, Lyon, France) from metastatic biopsy specimens (Thomasset, N. et al.; British Journal of Cancer, 46, 58-66 (1982)). Murine colon carcinoma cell line CT-26 was obtained from Dr I. J. Fidler (University of Texas M.D. Anderson Cancer Center, Houston). […] The effect of essential oils and compounds of oil on the proliferation of tumour cells was assessed using resazurin reduction test. […] The plates were incubated 1 h at 37° C. in an humidified atmosphere with 5% of CO2 for fluorescence development by living cells. Fluorescence was then measured on the automated 96-well plate reader Fluoroskan Ascent FLTM (Labsystems) using an excitation wavelength of 530 nm and an emission one of 590 nm. […] The essentials oil of jack pine (Pinus banksiana or Pinus divaricata), eastern white cedar (Thuya occidentalis), balsam fir (Abies balsamea), were evaluated for their cytotoxic activity against various tumor cell lines (Table 1). […]

[2] = tested on: A-549 human lung carcinoma; experiment: cells; format: cell-based
From the text: (§2) Normal human fibroblasts were purchased from Biopredic International (Rennes, France). This frozen culture was obtained from a person abdominal surgical waste and the cells used in this work was from the 7th to the 12th passage of the culture. M4Beu and […], human melanoma cell lines, was established in the laboratory of Dr. J. F. Doré (Institut National de la Santé et de la Recherche Médicale-INSERM, Unit 218, Lyon, France) from metastatic biopsy specimens (Thomasset, N. et al.; British Journal of Cancer, 46, 58-66 (1982)). Murine colon carcinoma cell line CT-26 was obtained from Dr I. J. Fidler (University of Texas M.D. Anderson Cancer Center, Houston). Breast cancer adenocarcinoma MCF-7 and MDA-MB-231, prostatic adenocarcinoma PC-3, ovary adenocarcinoma SK-OV-3, lung carcinoma A-549, colon adenocarcinoma DLD-1, human cell lines and melanoma 1B16 and fibroblast L-929 murine cell lines were purchased from American Type of Culture Collection (ATCC) or the European Collection of Cell Cultures (ECACC; Salisbury, United-Kingdom). Stock cell cultures were maintained as monolayers in 75-cm^2 culture flasks in GlutamaxTM Eagle's minimum essential medium with Earle's salts (Gibco-BRL, Paisley, Scotland) supplemented with 10% foetal calf serum (Sigma), and 5 ml of a 100× solution of vitamins (Gibco), 5 ml of 100 mM sodium pyruvate (Gibco), 5 ml of 100× non-essential amino acids (Gibco) and 2 mg of gentamicin base (Gibco). Cells were grown in a humidified 37° C. incubator containing 5% CO2. Cells were plated at a density of 5×10^3 cells per well in 96-well microplates (NunclonTM, Nunc) in 100 μl of culture medium and were allowed to adhere for 16 h before treatment. Then, 100 μl of culture medium containing essential oil of Pinus divaricata, essential oil of Thuya occidentalis, essential oil of Abies balsamea, α-humulene (Sigma-Aldrich); isocaryophyllene (Sigma-Aldrich) were added and incubated at 37° C. for 48 h. All compounds were dissolved in ethanol and the final concentration of ethanol in the culture medium was maintained at 0.5% (v/v). The effect of essential oils and compounds of oil on the proliferation of tumour cells was assessed using resazurin reduction test. Resazurin was recently identified as the alamar Blue dye (O'Brien, J. et al.; European Journal of Biochemistry, 267, 5421-6, (2000)). The resazurin reduction test (RRT) was carried out according to the protocol described here. Briefly, plates were rinsed by 200 μl PBS (37° C., Gibco) at 37° C. using an automatic microplate washer (Cell WashTM, Labsystems, Helsinki, Finland) and emptied by overturning on absorbent toweling. Then, 150 μl of a 25 μg/ml solution of resazurin in RPMI 1640 without Phenol red was added in each well using an automatic microvolume dispenser (Multidrop 384TM Labsystems). The plates were incubated 1 h at 37° C. in an humidified atmosphere with 5% of CO2 for fluorescence development by living cells. Fluorescence was then measured on the automated 96-well plate reader Fluoroskan Ascent FLTM (Labsystems) using an excitation wavelength of 530 nm and an emission one of 590 nm. The fluorescence is proportional to the number of living cells in the well and IC50 (drug concentration required to inhibit cell proliferation by 50%) was calculated from the curve of concentration-dependent survival percentage, defined as the fluorescence in experimental wells as a percentage of that in control wells, with blank values subtracted. The essentials oil of jack pine (Pinus banksiana or Pinus divaricata), eastern white cedar (Thuya occidentalis), balsam fir (Abies balsamea), were evaluated for their cytotoxic activity against various tumor cell lines (Table 1). The cell growth inhibition were measured by the fluorescence induced by the metabolic transformation of resazurin in resorufin. The fluorescence is proportional to living cells and allow to evaluate the concentration inhibiting 50% of cell growth (IC50).

[3] = tested on: PC-3 human prostatic adenocarcinoma; experiment: cells; format: cell-based
From the text: as §2

M4BEU human melanoma = experiment: cells; format: cell-based
From the text: as §2

[4] = tested on: MCF-7 human breast adenocarcinoma; experiment: cells; format: cell-based
From the text: as §2

[5] = tested on: DLD-1 human colon adenocarcinoma; experiment: cells; format: cell-based
From the text: as §2

Normal human fibroblasts = experiment: In vitro survival assay, resazurin reduction test, normal fibroblasts; format: cell-based; conditions: Fibroblast
From the text: as §1, with “Houston). Breast cancer adenocarcinoma MCF-7 and MDA-MB-231, prostatic adenocarcinoma PC-3, ovary adenocarcinoma SK-OV-3, lung carcinoma A-549, colon adenocarcinoma DLD-1, human cell lines and melanoma 1B16 and fibroblast L-929 murine cell lines were purchased from American Type of Culture Collection (ATCC) or the European Collection of Cell Cultures (ECACC; Salisbury, United-Kingdom).” for “Houston).”, “1). The cell growth inhibition were measured by the fluorescence induced by the metabolic transformation of resazurin in resorufin.” for “1).”

[6] = tested on: L-929 mouse subcutaneous connective tissue (fibroblast); experiment: In vitro survival assay, resazurin reduction test, L-929; format: cell-based; conditions: L929, L-929, 48 h
From the text: as §1

tumor cell lines = experiment: In vitro cytotoxic/antitumoral activity against tumor cell lines (panel statement); format: cell-based
Experimental: Cells were plated at a density of 5×10^3 cells per well in 96-well microplates (Nunclon™, Nunc) in 100 μl of culture medium and were allowed to adhere for 16 h before treatment. Then, 100 μl of culture medium containing essential oil of Pinus divaricata, essential oil of Thuya occidentalis, essential oil of Abies balsamea, α-humulene (Sigma-Aldrich); isocaryophyllene (Sigma-Aldrich) were added and incubated at 37° C. for 48 h. All compounds were dissolved in ethanol and the final concentration of ethanol in the culture medium was maintained at 0.5% (v/v). The effect of essential oils and compounds of oil on the proliferation of tumour cells was assessed using resazurin reduction test.
The resazurin reduction test (RRT) was carried out according to the protocol described here. Briefly, plates were rinsed by 200 μl PBS (37° C., Gibco) at 37° C. using an automatic microplate washer (Cell Wash™, Labsystems, Helsinki, Finland) and emptied by overturning on absorbent toweling. […] The plates were incubated 1 h at 37° C. in an humidified atmosphere with 5% of CO2 for fluorescence development by living cells. Fluorescence was then measured on the automated 96-well plate reader Fluoroskan Ascent FL™ (Labsystems) using an excitation wavelength of 530 nm and an emission one of 590 nm.

[7] = tested on: glutathione-S-transferase; conditions: Zheng et al. 1992; cited from earlier work
[8] = tested on: about ten tumor cell lines; conditions: Kaneda et al. 1992; cited from earlier work
[9] = tested on: gastric mucosal injuries induced by necrotizing agents; conditions: necrotizing agents such as absolute ethanol and HCl; Tambe et al. 1996; cited from earlier work
[10] = A549, A-549, 48 h, read-out: IC50
[11] = MCF7, MCF-7, 48 h, read-out: IC50

IC50 [2, 10]	IC50 ([3]; PC-3, 48 h, read-out: IC50)	IC50 (M4BEU human melanoma; 48 h, read-out: IC50)	IC50 [4, 11]	IC50 ([5]; DLD-1, 48 h, read-out: IC50)	Structure (SMILES)	IC50 [1]	IC50 (Normal human fibroblasts; 48 h, read-out: IC50)	IC50 (Normal human fibroblasts; fibroblastic normal cell, Table 2, read-out: activity against fibroblastic normal cell)	IC50 [6]	IC50 (tumor cell lines; all tumor cells tested, Table 2)	IC50 ([2]; A549, read-out: cytotoxic activity)	IC50 ([3]; read-out: cytotoxic activity)	IC50 (M4BEU human melanoma; read-out: cytotoxic activity)	IC50 ([4]; MCF7, read-out: cytotoxic activity)	IC50 ([5]; DLD-1, read-out: cytotoxic activity)	glutathione-S-transferase activity in vivo [7]	antitumoral activity in vitro, evaluated by the Applicants (tumor cell lines)	activity in vitro against about ten tumor cell lines [8]	gastric cytoprotection effect [9]
59 ± 4 µM	87 ± 8 µM	43 ± 3 µM	84 ± 6 µM	124 ± 17 µM	C=C1CCC=C(C)CC[C@H]2[C@@H]1CC2(C)C (relative stereo) [Isocaryophyllene, cis-4,11,11-Trimethyl-8-methylenebicyclo[7.2.0]undec-4-ene]	46 ± 1 µM	124 ± 15 µM	> 100 µM	34 ± 0.8 µM	< 100 µM									
68 ± 2 µM	73 ± 2 µM	55 ± 2 µM	73 ± 2 µM	71 ± 2 µM	CC1=CCCC(C)=CCC(C)(C)C=CC1 [α-humulene, 2,6,6,9-Tetramethyl-1,4,8-cycloundecatriene]	53 ± 1 µM	85 ± 5 µM		50.2 ± 0.3 µM		< 100 µM	< 100 µM	< 100 µM	< 100 µM	< 100 µM	increasing of gluthatione-S-transferase activity			
					C=C1CC[C@H]2O[C@]2(C)CC[C@@H]2[C@@H]1CC2(C)C [β-caryophyllene oxide]											increasing of gluthatione-S-transferase activity	no significant bioactivity	inactive	
					C=C1CC/C=C(\C)CC[C@@H]2[C@@H]1CC2(C)C [β-caryophyllene]											increasing of gluthatione-S-transferase activity	no significant bioactivity		inhibition of gastric mucosal injuries
